Among the data in ChEMBL document CHEMBL3351854, “A comprehensive review on synthetic approach for antimalarial agents” (Eur J Med Chem, 2014) are IC50 and Activity values, retold here.

SMILES strings stand for the structures. pIC50: −log10 of the molar value.

For test [1], the system named is Plasmodium falciparum. In words: Antimalarial activity against Plasmodium falciparum by culture assay. In kind it is functional, organism-based.
Test [2] relates to Plasmodium falciparum. The test is described as follows: Antimalarial activity against Plasmodium falciparum by Heme-HRP assay. In kind it is functional, organism-based.
The test system of test [3] is Plasmodium falciparum. The test is described as follows: Antimalarial activity Plasmodium falciparum NF54. In kind it is functional, organism-based.
Test [4] concerns Plasmodium yoelii nigeriensis. The test is described as follows: Antimalarial activity against multidrug-resistant Plasmodium yoelii nigeriensis infected mouse assessed as protection at 24 mg/kg for 4 days. In kind it is functional.
Test [5] relates to Plasmodium yoelii nigeriensis. In words: Antimalarial activity against multidrug-resistant Plasmodium yoelii nigeriensis infected mouse assessed as protection at 12 mg/kg for 4 days. It is filed as functional.

`Fc1ccc(CNCCOCCOCCNc2ccnc3cc(Cl)ccc23)c(F)c1`: the results for the negative-log IC50 (pIC50) in test [1] and in test [2] were 7.32 and 4.22, respectively.

`CCOC(=O)CC1CCC2(OCCCC2CC(=O)OCC)OO1` (stereo not given) showed a negative logarithm of the IC50 (pIC50) in test [3] of 6.80.

Regarding `C[C@@H]1[C@H]2CC[C@@H](C)[C@@H]3CC[C@]4(C)OO[C@@]23[C@H](C[C@H]1OC(=O)C1c2ccccc2-c2ccccc21)O4`, the Activity is reported as 100% in test [4] and 80% in test [5].

What is called pIC50 is −log10 of the IC50, conventionally taken in molar units. Read a low pIC50 as a high IC50.
